These results are taken from US20090124562A1, “Versipelostatin derivative, anti-cancer agent and processes for production of the derivative and agent” (TOUDAI TLO, LTD., priority 2005, published 2009).

Data set [1] deals with HT 1080 cell. Nature of the data set: Toxicity at the cell level, cell count at 100 μM (Examples 11, 12). The class given is cell-based.
Description: HT 1080 cell was cultured in a 6-cm dish until the cells became 70% confluent, and VST or a VST derivative was added to a concentration of 10, 3, or 1 μM in the absence of glucose (in the glucose-deficient state), and the action thereof was studied.
In the present Example, the VST derivative prepared in Example 1 (the compounds having the chemical structure represented by “Formula 11” as the substituent group R^1 (n=3)) was used as the VST derivative. […] In the present Example, VST or the VST derivative was added at a concentration of 100 μM.
In the present Example, the culture cell was brought into the glucose-deficient state by addition of 2-deoxyglucose.
The three kinds of VST biotin derivatives prepared in Example 7 were used as the VST derivatives. In the present Example, VST or the VST derivative was added to a concentration of 100 μM, and 2-DG, to a concentration of 20 mM.
The test system of data set [2] is ICR mice. The data set can be described thus: Acute toxicity experiment in mice (Example 13). Type of data set: in vivo. The following applies: male ICR mice, tail vein injection. As to the method:
The mice used were 7- to 8-week old male ICR mice (available from Charles River). VST or a VST derivative was administered to each mouse by tail vein injection, and the toxicity thereof was studied. In the present experiment, the VST biotin derivative prepared in Example 7 was used as the VST derivative.

The subject of data set [3] is HT 1080 cell. Nature of the data set: MTT assay, cell survival rate (Example 8). The class given is cell-based. The settings on record: for cell survival rate (MTT assay): 24 hours.
Data set [4] has as its system GRP 78. The data set can be described thus: Western blot of GRP 78 expression in HT 1080 cell (Examples 6, 7). Type of data set: cell-based. The following applies: glucose-deficient condition, cultured 18 hours, FIGS. 5 to 8. The text has this:
In Example 6, the action of the VST derivative to inhibit expression of GRP 78 was studied by Western blot method. In the present experiment, the compounds prepared in Example 1 (the compounds having the chemical structure represented by “Formula 11” as the substituent group R^1 (n=3)) was used as the VST derivative.
Expression of GRP 78 is known to induce under glucose-deficient condition. Thus in the present experiment, the action of the VST derivative to induce or inhibit expression of GPR78 was studied both under glucose-deficient condition and also under normal condition.
The experiment was performed generally in the following manner: First, HT 1080 cell (cancer cell) was cultured in RPMI 1640 medium. […] Then, cultured cells were harvested, and GRP 78 expressed was detected by Western blotting with an anti-GRP 78 antibody.
Then, the cell was cultured in a similar manner and condition to those in Example 6, and GRP 78 expressed was detected by Western blotting by using an anti-GRP 78 antibody.

For the compound versipelostatin [VST], the cell death entry in data set [1] (Example 11: HT 1080 cell, glucose-deficient state) is recorded as “cell death”; in data set [1] (Example 12: HT 1080 cell, glucose-deficient state by 2-DG 20 mM, three VST biotin derivatives of Example 7), “cell death”. Further, the cell count entry in data set [1] (Example 11: HT 1080 cell, normal culture environment (glucose present)) is given as “significant decrease in cell count”; in data set [1] (Example 12: HT 1080 cell, normal culture environment, three VST biotin derivatives of Example 7) it was “significant drop in cell count”. In addition, the “Number of dead animals (within 24 hours)” value in data set [2] (6 mg/kg) is reported as 0; in data set [2] (9 mg/kg), 0; in data set [2] (12 mg/kg), 1; in data set [2] (15 mg/kg), 5; in data set [2] (18 mg/kg), 4; in data set [2] (21 mg/kg) it was 4. Also, the “Number of dead animals (within 24 hours)” value in data set [2] (30 mg/kg) came out at 4. In data set [2] (summary of Table 1), the “dosage leading to death of all mice” value was “more than 18 mg/kg”. Moreover, in data set [3] (2-DG not added, MTT assay), the “addition amount above which the cell survival rate declined significantly” value was “exceeded 25 μM”. The “cell survival rate (MTT assay)” value in data set [3] (2-DG not added, increasing addition amount, derivatives = VST-Biotin, VST-Biotin-C6, VST-Biotin-C12) was “declined significantly”; in data set [3] (with 20 mM 2-DG (glucose-deficient state), derivatives = VST-Biotin, VST-Biotin-C6, VST-Biotin-C12) it was “around 30%”. Moreover, the “induction of GRP 78 expression (Western blot)” value in data set [4] is recorded as “inhibited to some extent”.
`O=CC[C@@H](O)[C@H](O)[C@H](O)CO` [Example 2-DG, 2-deoxyglucose]: the “cell survival rate (MTT assay)” value in data set [3] (20 mM 2-DG alone) is “approximately 50%”.
